From BindingDB's records for PubMed 20126400 (University of Oklahoma, 2010)

What was measured:
Assay in all cases: Ray2010 Assay 74
[1] = target: Sigma intracellular receptor 2 (Homo sapiens, UniProt Q5BJF2)
Excerpt: (§1) Table S2 shows raw Ki data for the current study combined with data collected from the literature for the ten additional compounds.

[2] = target: T1, 5-hydroxytryptamine receptor 2C (Homo sapiens, UniProt P28335)
T1 sequence (P28335 whole entry): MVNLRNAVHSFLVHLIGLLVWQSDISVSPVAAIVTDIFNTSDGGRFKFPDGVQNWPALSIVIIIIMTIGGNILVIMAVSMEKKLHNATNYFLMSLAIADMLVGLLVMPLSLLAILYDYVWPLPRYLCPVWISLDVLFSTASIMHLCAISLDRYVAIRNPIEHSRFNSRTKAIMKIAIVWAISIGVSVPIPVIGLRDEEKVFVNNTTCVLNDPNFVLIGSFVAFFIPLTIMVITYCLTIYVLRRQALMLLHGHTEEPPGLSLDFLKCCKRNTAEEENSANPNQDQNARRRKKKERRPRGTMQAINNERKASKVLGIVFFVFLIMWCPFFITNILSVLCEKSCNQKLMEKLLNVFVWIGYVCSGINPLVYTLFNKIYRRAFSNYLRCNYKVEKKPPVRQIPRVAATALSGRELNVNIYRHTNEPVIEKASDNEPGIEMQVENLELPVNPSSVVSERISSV
Excerpt: as §1

Glutamate receptor 4 = Glutamate receptor 4 (Homo sapiens, UniProt P48058)
Sequence of Glutamate receptor 4 (P48058 whole entry): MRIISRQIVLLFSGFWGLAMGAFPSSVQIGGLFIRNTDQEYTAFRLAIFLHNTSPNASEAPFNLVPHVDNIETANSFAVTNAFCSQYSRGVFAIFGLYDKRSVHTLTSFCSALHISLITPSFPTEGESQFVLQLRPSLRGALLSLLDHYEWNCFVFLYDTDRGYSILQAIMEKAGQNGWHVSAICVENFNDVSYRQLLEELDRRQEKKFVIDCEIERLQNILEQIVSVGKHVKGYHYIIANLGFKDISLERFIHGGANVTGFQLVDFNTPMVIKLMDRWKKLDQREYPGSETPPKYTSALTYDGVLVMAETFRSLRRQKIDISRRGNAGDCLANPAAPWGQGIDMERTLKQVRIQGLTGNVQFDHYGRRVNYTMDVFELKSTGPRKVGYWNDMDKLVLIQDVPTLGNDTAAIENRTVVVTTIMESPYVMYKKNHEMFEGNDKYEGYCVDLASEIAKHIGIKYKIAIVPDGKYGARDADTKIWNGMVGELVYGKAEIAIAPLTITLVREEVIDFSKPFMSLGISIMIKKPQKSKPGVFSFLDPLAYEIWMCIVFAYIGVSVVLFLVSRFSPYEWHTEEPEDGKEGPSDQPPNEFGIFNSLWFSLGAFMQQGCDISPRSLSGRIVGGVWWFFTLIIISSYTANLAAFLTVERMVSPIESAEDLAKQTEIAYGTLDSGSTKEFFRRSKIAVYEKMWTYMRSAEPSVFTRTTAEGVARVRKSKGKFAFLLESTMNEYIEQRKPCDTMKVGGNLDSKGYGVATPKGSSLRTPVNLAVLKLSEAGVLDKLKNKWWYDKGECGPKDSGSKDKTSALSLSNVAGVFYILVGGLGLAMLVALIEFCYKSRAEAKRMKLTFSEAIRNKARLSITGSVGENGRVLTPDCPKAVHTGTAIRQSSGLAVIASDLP
Excerpt: as §1

[3] = target: Gamma-aminobutyric acid receptor subunit beta-1 (Homo sapiens, UniProt P18505)
Excerpt: as §1

[4] = target: Neuronal acetylcholine receptor subunit alpha-4/beta-2 (Homo sapiens, UniProt P17787+P43681)
Excerpt: as §1

[5] = target: T2, Muscarinic acetylcholine receptor M4 (Homo sapiens, UniProt P08173)
T2 sequence (P08173 whole entry): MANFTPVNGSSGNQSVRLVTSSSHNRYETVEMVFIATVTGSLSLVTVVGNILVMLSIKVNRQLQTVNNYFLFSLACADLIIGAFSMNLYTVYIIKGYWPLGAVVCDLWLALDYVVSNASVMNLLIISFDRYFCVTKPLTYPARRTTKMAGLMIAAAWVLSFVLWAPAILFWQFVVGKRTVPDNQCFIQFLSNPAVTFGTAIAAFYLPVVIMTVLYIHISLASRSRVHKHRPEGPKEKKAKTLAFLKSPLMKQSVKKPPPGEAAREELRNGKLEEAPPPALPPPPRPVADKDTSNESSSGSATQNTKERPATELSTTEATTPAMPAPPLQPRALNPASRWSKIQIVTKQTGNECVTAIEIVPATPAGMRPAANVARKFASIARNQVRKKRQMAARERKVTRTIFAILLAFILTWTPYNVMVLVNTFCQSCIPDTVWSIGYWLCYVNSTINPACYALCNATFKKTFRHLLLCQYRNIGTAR
Excerpt: as §1

[6] = target: Neuronal acetylcholine receptor subunit alpha-2/beta-4 (Homo sapiens, UniProt P30926+Q15822)
Excerpt: as §1

[7] = target: Neuronal acetylcholine receptor subunit alpha-4/beta-2 (Mus musculus, UniProt O70174+Q9ERK7)
Sequence of Neuronal acetylcholine receptor subunit alpha-4/beta-2 (Mus musculus, UniProt O70174+Q9ERK7) (O70174 whole entry): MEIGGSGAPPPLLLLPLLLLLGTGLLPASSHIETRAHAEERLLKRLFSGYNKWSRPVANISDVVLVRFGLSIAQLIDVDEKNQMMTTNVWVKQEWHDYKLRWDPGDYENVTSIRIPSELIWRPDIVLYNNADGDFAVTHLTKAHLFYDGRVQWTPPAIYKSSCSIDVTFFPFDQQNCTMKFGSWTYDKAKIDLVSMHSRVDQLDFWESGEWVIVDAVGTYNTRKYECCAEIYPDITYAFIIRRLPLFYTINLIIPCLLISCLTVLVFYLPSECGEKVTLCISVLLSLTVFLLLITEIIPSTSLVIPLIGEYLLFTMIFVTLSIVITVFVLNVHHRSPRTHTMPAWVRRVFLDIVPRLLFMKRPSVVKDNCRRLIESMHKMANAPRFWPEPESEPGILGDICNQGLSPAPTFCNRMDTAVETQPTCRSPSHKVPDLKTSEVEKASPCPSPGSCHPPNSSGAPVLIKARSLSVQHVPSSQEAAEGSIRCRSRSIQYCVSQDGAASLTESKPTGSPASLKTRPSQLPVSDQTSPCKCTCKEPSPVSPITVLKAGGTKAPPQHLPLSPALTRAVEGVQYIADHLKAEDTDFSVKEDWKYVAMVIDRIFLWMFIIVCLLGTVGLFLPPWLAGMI
Sequence of Neuronal acetylcholine receptor subunit alpha-4/beta-2 (Mus musculus, UniProt O70174+Q9ERK7) (Q9ERK7 whole entry): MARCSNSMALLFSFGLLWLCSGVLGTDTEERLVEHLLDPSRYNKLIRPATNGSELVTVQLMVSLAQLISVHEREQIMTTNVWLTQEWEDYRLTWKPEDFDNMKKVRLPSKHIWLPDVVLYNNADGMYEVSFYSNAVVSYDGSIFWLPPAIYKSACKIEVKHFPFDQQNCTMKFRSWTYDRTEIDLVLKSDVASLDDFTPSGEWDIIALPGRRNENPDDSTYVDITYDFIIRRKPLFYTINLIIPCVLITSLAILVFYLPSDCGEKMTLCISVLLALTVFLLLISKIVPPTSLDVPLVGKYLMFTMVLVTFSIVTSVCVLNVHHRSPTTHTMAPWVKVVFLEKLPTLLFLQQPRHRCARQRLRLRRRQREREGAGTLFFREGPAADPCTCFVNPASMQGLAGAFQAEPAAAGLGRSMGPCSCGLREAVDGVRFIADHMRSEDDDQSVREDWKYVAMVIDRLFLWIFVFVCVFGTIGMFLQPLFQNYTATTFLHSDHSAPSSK
Excerpt: as §1

[8] = target: Neuronal acetylcholine receptor subunit alpha-3/beta-2 (Homo sapiens, UniProt P17787+P32297)
Excerpt: as §1

Histamine H3 receptor = Histamine H3 receptor (Homo sapiens, UniProt Q9Y5N1)
Excerpt: as §1

[9] = target: Neuronal acetylcholine receptor subunit alpha-2/beta-2 (Homo sapiens, UniProt P17787+Q15822)
Excerpt: as §1

[10] = target: Neuronal acetylcholine receptor subunit alpha-4/beta-4 (Homo sapiens, UniProt P30926+P43681)
Excerpt: as §1

[11] = target: Metabotropic glutamate receptor 4 (Homo sapiens, UniProt Q14833)
Sequence of Metabotropic glutamate receptor 4 (Q14833 whole entry): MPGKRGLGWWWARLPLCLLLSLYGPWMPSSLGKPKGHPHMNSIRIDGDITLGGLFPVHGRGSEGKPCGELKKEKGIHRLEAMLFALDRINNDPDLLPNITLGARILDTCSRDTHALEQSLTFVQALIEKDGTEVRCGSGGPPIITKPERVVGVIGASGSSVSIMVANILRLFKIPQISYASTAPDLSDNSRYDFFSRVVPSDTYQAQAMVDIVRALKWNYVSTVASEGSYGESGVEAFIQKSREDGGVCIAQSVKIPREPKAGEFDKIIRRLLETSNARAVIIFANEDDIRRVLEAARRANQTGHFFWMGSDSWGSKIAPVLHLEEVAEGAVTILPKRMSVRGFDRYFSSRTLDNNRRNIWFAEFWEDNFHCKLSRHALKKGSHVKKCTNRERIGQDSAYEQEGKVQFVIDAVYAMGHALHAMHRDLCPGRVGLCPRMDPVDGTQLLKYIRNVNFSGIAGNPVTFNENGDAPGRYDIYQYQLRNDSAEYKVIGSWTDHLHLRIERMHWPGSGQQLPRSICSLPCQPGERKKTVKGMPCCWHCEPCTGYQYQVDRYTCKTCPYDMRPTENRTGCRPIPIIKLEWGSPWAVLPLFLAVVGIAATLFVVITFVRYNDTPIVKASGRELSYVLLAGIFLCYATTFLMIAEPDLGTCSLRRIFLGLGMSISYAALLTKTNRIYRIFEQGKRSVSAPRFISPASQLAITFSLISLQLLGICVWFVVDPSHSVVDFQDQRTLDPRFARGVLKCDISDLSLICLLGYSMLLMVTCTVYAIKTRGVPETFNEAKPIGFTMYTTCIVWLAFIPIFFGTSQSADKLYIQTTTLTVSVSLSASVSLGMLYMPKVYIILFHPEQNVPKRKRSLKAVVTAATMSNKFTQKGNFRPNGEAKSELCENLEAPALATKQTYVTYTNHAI
Excerpt: as §1

[12] = target: Metabotropic glutamate receptor 2 (Homo sapiens, UniProt Q14416)
Sequence of Metabotropic glutamate receptor 2 (Q14416 whole entry): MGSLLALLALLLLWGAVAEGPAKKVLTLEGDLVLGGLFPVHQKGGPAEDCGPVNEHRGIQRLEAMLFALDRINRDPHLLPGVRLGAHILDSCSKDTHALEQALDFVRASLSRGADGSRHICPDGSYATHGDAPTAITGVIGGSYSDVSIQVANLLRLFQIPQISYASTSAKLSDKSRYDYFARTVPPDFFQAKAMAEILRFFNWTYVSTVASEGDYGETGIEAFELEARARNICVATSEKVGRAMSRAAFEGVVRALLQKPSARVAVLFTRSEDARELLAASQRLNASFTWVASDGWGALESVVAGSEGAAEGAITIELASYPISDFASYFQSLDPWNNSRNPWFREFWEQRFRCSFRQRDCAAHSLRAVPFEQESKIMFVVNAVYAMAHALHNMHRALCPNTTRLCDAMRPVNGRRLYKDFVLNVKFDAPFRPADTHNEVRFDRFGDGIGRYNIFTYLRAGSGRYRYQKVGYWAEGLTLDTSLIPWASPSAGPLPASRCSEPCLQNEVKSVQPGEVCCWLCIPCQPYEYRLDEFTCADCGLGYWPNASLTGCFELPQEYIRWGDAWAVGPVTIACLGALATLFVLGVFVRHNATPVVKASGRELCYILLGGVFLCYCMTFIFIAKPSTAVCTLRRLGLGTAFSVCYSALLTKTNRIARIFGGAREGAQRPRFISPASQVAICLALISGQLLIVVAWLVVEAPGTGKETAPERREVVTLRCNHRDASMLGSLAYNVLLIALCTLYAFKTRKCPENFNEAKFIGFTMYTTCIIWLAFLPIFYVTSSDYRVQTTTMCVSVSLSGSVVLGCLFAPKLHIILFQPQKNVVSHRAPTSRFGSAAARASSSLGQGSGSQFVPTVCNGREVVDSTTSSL
Excerpt: as §1

[13] = target: Metabotropic glutamate receptor 5 (Homo sapiens, UniProt P41594)
Excerpt: as §1

[14] = target: Metabotropic glutamate receptor 1 (Homo sapiens, UniProt Q13255)
Sequence of Metabotropic glutamate receptor 1 (Q13255 whole entry): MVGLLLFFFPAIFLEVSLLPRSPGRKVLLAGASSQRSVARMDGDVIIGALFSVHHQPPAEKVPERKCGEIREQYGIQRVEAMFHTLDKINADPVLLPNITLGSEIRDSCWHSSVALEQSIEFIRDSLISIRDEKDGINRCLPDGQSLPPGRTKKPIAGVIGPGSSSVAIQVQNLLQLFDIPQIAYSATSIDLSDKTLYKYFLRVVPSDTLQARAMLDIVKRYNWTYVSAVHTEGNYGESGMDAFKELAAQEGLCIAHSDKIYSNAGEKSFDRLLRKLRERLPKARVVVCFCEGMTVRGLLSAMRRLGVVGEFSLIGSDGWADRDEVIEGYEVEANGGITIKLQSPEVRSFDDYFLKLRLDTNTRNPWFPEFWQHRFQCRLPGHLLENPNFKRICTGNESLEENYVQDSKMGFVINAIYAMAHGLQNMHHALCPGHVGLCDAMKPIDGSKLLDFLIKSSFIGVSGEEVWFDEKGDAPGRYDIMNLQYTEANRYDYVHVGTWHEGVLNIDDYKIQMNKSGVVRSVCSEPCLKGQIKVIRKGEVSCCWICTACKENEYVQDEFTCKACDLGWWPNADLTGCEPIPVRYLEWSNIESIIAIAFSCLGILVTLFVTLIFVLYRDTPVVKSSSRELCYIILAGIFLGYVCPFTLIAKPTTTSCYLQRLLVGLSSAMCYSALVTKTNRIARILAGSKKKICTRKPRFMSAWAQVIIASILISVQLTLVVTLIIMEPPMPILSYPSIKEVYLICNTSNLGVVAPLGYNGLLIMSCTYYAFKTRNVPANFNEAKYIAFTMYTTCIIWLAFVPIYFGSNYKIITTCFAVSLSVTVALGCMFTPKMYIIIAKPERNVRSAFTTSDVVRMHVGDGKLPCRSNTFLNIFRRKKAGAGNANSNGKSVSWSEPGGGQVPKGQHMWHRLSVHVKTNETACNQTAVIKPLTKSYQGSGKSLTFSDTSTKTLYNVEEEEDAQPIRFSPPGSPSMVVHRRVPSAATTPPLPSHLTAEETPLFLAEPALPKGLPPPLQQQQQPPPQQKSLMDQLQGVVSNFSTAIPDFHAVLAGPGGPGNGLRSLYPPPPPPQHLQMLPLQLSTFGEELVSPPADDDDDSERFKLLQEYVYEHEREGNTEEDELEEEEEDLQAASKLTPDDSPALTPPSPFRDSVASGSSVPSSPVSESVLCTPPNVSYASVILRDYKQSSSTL
Excerpt: as §1

[15] = target: Metabotropic glutamate receptor 8 (Homo sapiens, UniProt O00222)
Excerpt: as §1

[16] = target: Metabotropic glutamate receptor 6 (Homo sapiens, UniProt O15303)
Excerpt: as §1

Cannabinoid receptor 1 = Cannabinoid receptor 1 (Homo sapiens, UniProt P21554)
Excerpt: as §1

[17] = target: T3, Gamma-aminobutyric acid receptor subunit alpha-1/Adenosine receptor A1 (Homo sapiens, UniProt P14867+P30542)
T3 sequence (P30542 whole entry): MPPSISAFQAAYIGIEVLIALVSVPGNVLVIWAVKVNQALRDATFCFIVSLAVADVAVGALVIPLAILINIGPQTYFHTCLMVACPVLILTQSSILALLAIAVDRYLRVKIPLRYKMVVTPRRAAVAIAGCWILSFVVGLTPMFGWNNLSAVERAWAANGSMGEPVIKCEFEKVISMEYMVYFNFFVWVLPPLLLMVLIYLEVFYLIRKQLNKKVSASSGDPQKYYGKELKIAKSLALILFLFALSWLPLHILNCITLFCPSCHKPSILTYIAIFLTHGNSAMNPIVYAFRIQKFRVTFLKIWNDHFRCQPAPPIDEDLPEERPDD
T3 sequence (P14867 whole entry): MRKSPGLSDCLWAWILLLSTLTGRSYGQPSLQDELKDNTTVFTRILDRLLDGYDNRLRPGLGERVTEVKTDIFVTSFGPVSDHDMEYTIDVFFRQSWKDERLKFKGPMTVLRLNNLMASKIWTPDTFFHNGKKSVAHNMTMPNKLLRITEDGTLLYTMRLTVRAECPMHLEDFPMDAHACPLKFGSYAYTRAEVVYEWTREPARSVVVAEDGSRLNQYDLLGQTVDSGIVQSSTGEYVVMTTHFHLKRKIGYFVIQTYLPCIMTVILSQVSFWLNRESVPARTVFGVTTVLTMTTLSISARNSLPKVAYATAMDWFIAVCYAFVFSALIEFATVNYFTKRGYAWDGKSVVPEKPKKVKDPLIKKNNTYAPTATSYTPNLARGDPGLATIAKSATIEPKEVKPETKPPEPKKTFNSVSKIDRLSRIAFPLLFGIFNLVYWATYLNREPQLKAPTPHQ
Excerpt: as §1

[18] = target: Voltage-dependent calcium channel subunit alpha-2/delta-1 (Homo sapiens, UniProt P54289)
Excerpt: as §1

Compound | Ki (Glutamate receptor 4) | Ki [3] | Ki [4] | Ki [5] | Ki [6] | Ki [7] | Ki [8] | Ki (Histamine H3 receptor) | Ki [9] | Ki [10] | Ki [11] | Ki [12] | Ki [13] | Ki [14] | Ki [15] | Ki [16] | other results
CC[C@H]1C[C@@H]2C[C@H]3c4[nH]c5ccc(OC)cc5c4CCN(C2)[C@@H]13 | > 10 µM | > 10 µM | – | – | – | – | – | – | – | – | – | – | – | – | – | – | Ki [1]: 0.206 µM; Ki [2]: > 10 µM
CCc1[nH]c2ccc(OC)cc2c1CCN(C)C [2-ethyl-5-methoxy-N,N-dimethyltryptamine] | > 10 µM | – | > 10 µM | > 10 µM | > 10 µM | > 10 µM | > 10 µM | > 10 µM | > 10 µM | > 10 µM | – | – | – | – | – | – | –
COc1ccc2[nH]c(C)c(CCN(C)C)c2c1 [[2-(5-Methoxy-2-methyl-1H-indol-3-yl)-ethyl]-dimethyl-amine (C2H2O)] | > 10 µM | – | > 10 µM | > 10 µM | > 10 µM | > 10 µM | > 10 µM | > 10 µM | > 10 µM | > 10 µM | – | – | – | – | – | – | –
C[C@@H]1C[C@H](C)N1C(=O)C1C=C2c3cccc4[nH]cc(c34)C[C@H]2N(C)C1 (stereo partly drawn) [cis-2a] | – | – | > 10 µM | – | > 10 µM | > 10 µM | > 10 µM | – | > 10 µM | > 10 µM | > 10 µM | > 10 µM | > 10 µM | > 10 µM | > 10 µM | > 10 µM | –
CNC(C)Cc1ccc2c(c1)OCO2 (centres undefined) [mdma] | – | > 10 µM | – | 8.25 µM | > 10 µM | – | > 10 µM | – | > 10 µM | > 10 µM | > 10 µM | > 10 µM | > 10 µM | > 10 µM | – | – | Ki (Cannabinoid receptor 1): > 10 µM; Ki [17]: > 10 µM; Ki [18]: 1.2 µM
C[C@@H]1C[C@@H](C)N1C(=O)C1C=C2c3cccc4[nH]cc(c34)C[C@H]2N(C)C1 (some centres undefined) [rr-2b] | – | – | > 10 µM | – | > 10 µM | > 10 µM | > 10 µM | – | > 10 µM | > 10 µM | > 10 µM | > 10 µM | > 10 µM | > 10 µM | > 10 µM | > 10 µM | –
